Assay results taken from patent US5872104A, “Combinations and methods for reducing antimicrobial resistance” (Oridigm Corporation, priority 1994, dated 1999).
Like-named read-outs stand apart in the source and are kept apart here.

Tests used:
human liver SAHH = details: cited from earlier work
hamster liver SAHH = details: cited from earlier work
[1] = test system: transfer and ribosomal RNA (tRNA and rRNA) methylases; details: cited from earlier work
Mycobacterium leprae = details: 12 μg/mouse every 12 hours, 15 doses, local; cited from earlier work
glutathione = details: ip.; 4.5 mmol/kg buthionine sulfoximine and […] diethyl maleate; cited from earlier work
SAM-synthetase = details: in vivo; cited from earlier work
cell culture = details: cited from earlier work
SAH hydrolase = details: cited from earlier work
L1210 cells [2] = assay: Growth inhibition in L1210 cell culture; assay type: cell-based
L1210 cells [3] = details: absence of polyamine depletion; cited from earlier work
SAM synthetase = details: cited from earlier work
SAM pools in L1210 cells = details: cited from earlier work
[4] = test system: N- and O-methylation of mRNA; details: 100 μM; cited from earlier work
[5] = test system: rat SAM synthetase M-1 isozyme; details: cited from earlier work
[6] = test system: rat SAM synthetase M-2 isozyme; details: cited from earlier work
[7] = test system: vesicular stomatitis virus; details: primary rabbit kidney cells; cited from earlier work
vaccinia virus = details: cited from earlier work
human retrovirus = details: cited from earlier work
malarial growth = details: read-out: ED50 (the source's name); cited from earlier work
[8] = sc., rats; cited from earlier work
[9] = test system: porcine liver tRNA methyltransferase; details: cited from earlier work
SAHH hydrolase = details: cited from earlier work
cytotoxicity = details: cited from earlier work
[10] = test system: S. aureus 27660 (erythromycin resistant); assay type: cell-based; details: for enhanced killing with erythromycin: in combination with erythromycin
[11] = test system: 28S rRNA, 18S rRNA and tRNA; details: NPA 10 μM; c^3 -NPA 10 μM; c^3 -Ari 100 μM; cited from earlier work
[12] = test system: vaccinia virion mRNA(guanine-7)methyltransferase; details: 100 μM; cited from earlier work
RNA methyltransferase = details: cited from earlier work
[13] = iv., mice; cited from earlier work
[14] = test system: mature rRNA in Novikoff hepatoma cells; details: cited from earlier work
rRNA processing = details: cited from earlier work
[15] = test system: tRNA methylases isolated from E. coli; details: cited from earlier work
methyl transfer from SAM = details: cited from earlier work
[16] = test system: SAM-dependent methylations; details: cited from earlier work
polyamine biosynthesis = details: cited from earlier work
[17] = test system: tumor-derived methionine adenosyltransferases; details: cited from earlier work
[18] = test system: internal m^6 A of late SV40 mRNA; details: 0.5 mg/ml; cited from earlier work
rat leukemia (BNML) = details: nitrous oxide plus cycloleucine; cited from earlier work
[19] = test system: S. aureus 6538 (erythromycin susceptible); assay: Erythromycin disk susceptibility with inhibitor pre-mixed in agar; assay type: cell-based; details: inhibitor pre-mixed with BHIA or TSA, with erythromycin (FIG. 2)
adenosine deaminase = details: cited from earlier work
viruses = details: cited from earlier work
murine L929 SAHH = details: cited from earlier work
tRNA methylases = details: cited from earlier work
[20] = not told; cited from earlier work
[21] = test system: nucleosidase enzymes responsible for SAH metabolism; details: cited from earlier work
poly(A)-RNA methylation = details: inhibitor level that still permitted cell growth; cited from earlier work
[22] = test system: vaccinia virion mRNA(nucleoside-2'-)methyltransferase; details: cited from earlier work
[23] = test system: RNA methyltransferase from Streptomyces antibioticus; details: 100 μM; cited from earlier work
[24] = dogs; cited from earlier work
[25] = test system: cell transformation by Rous sarcoma virus; details: concentrations not toxic to normal cells; cited from earlier work
RNA methylation = details: cited from earlier work

Nc1ncnc2c1ncn2[C@@H]1O[C@H](CO)[C@@H](O)[C@H]1Cl [CLA, 2'-deoxy-2'-chloroadenosine]
inhibition (human liver SAHH): inhibitor
inhibition (hamster liver SAHH): inhibitor

polyinosinate
combination with adenine and adenosine [1]: particularly effective in combination with adenine and adenosine
inhibition of tRNA and rRNA methylases [1]: inhibits transfer and ribosomal RNA (tRNA and rRNA) methylases
inhibition by base ([1]; methylases of individual bases): inhibition of adenine methylases occurred to the greatest extent and guanine methylases to the least
multiplication of M. leprae (Mycobacterium leprae): inhibit multiplication of Mycobacterium leprae

CCCCS(=N)(=O)CCC(N)C(=O)O (stereo not shown) [buthionine sulfoximine, CH3 (CH2)2 S (O)(=NH)CH2 CH2 CH(NH2)COOH]
depletion of glutathione (glutathione): depleted liver and aortic glutathione
SAM-synthetase activity, % of untreated animals (SAM-synthetase): about 40%

Nc1ncnc2c1ncn2[C@@H]1C[C@H](O)[C@@H](O)[C@H]1O (relative stereo) [(±)-5-Noraristeromycin]
times less cytotoxic (cell culture): 10 to 20 times
SAH hydrolase inhibition (SAH hydrolase): inhibitors of SAHH

CO/C=C\[C@H](N)C(=O)O (stereo in doubt) [L-cis-AMB, L-2-amino-4-methoxy-cis-but-3-enoic acid]
IC50, fold lower than that of cycloleucine (L1210 cells [2]): about 10 fold
IC50 (L1210 cells [3]): 400 µM
SAM synthetase inhibition (SAM synthetase): most potent methionine-analogue inhibitor of SAM synthetase at that time
depletion of SAM (SAM pools in L1210 cells; 1 mM, cultured L1210 cells): rapid and near-total depletion of SAM by 4 hours
SAM pools in intact cells (SAM pools in L1210 cells; intact cells): rapidly depleting SAM pools in intact cells without affecting precursor incorporation into macromolecules

Nc1nccc2c1ncn2[C@@H]1O[C@H](CO)[C@@H](O)[C@H]1O [3-deazaadenosine]
inhibition of N- and O-methylation of mRNA [4]: 31-83%

Nc1ncnc2c1ncn2[C@@H]1O[C@H]([C@H](CSCC[C@H](N)C(=O)O)OP(=O)(O)OP(=O)(O)NP(=O)(O)O)[C@@H](O)[C@H]1O [5'(R)-(C)-[(L-homocysteine-S-yl)methyl]adenosine 5'-(β,γ-imidotriphosphate)]
inhibition [5]: most effective inhibitor
inhibition [6]: most effective inhibitor

Nc1ncnc2c1ncn2[C@@H]1C=C(CO)[C@@H](O)[C@H]1O [NPA, neplanocin A]
minimum inhibitor concentration (50% reduction of cytopathogenicity) [7]: 0.018 µg/mL
inhibition of plaque formation (vaccinia virus; 0.5 μM): 84%
inhibition of plaque formation (vaccinia virus; 1 μM): 95%
toxicity to the host cells (vaccinia virus; 0.5 and 1 μM): little toxicity to the host cells
effective inhibitory concentration (human retrovirus): ~0.2 µg/mL
IC50 (malarial growth): 3 µM
Ki (SAH hydrolase; De Clercq & Cools (1985)): 0.002 µM
SAH hydrolase inhibition (SAH hydrolase): potent inhibitor of SAH hydrolase

NC(=O)c1cccnc1 [Nicotinamide]
LD50 [8]: 1680 mg/kg
inhibition of tRNA methyltransferase [9]: inhibition of porcine liver tRNA methyltransferase activity

Nc1nccc2c1ncn2[C@@H]1C=C(CO)[C@@H](O)[C@H]1O [3-Deazaneplanocin A, 3-deazaneplanocin A]
antiviral activity and cytotoxicity vs first generation (SAHH hydrolase): retained antiviral activity and considerably lower cytotoxicity than their parent first generation inhibitors
cytotoxicity relative to neplanocin A (cytotoxicity): significantly less cytotoxic than neplanocin A
enhanced killing with erythromycin [10]: enhanced the killing
methylation of 28S rRNA, 18S rRNA and tRNA [11]: inhibit the methylation of 28S rRNA, 18S rRNA and tRNA

CNc1ncnc2c1ncn2[C@@H]1O[C@H](CSCC[C@H](N)C(=O)O)[C@@H](O)[C@H]1O [S-(N^6 -methyladenosyl)-L-homocysteine]
inhibition [12]: 85%
potency relative to SAH (RNA methyltransferase): nearly as potent an RNA methyltransferase inhibitor as SAH

Nc1ncnc2c1ccn2[C@@H]1O[C@H](CO)[C@@H](O)[C@H]1O [Tubercidin, 7-deazaadenosine]
LD50 [13]: 45 mg/kg
SAH hydrolase inhibition (SAH hydrolase): inhibits SAHH
formation of mature rRNA [14]: inhibit the formation of mature 28S and 18
rRNA processing (rRNA processing): inhibits rRNA processing in addition to methylation of tRNA and protein and nucleic acid synthesis
inhibition of E. coli tRNA methylases [15]: inhibitory to tRNA methylases isolated from E. coli

CSC[C@H]1O[C@@H](n2cnc3c(N)ncnc32)[C@H](O)[C@@H]1O [Methylthioadenosine, 5'-Deoxy-5'-(methylthio)adenosine]
inhibition (methyl transfer from SAM): effective inhibitors
enhanced killing with erythromycin [10]: enhanced the killing
inhibition of SAM-dependent methylations [16]: inhibitor of several SAM-dependent methylations
inhibition of spermine and spermidine synthesis (polyamine biosynthesis): inhibitor of spermine and spermidine synthesis

NC1(C(=O)O)CCCC1 [cycloleucine, 1-aminocyclopentane-1-carboxylic acid]
inhibition [17]: effective inhibitors
IC50 (L1210 cells [3]): 5000 µM
improved killing, increase over control ([10]; 0.1M in Brain Heart Infusion Agar (FIG. 3)): 240%
increase in the size of the clear zone ([10]; inhibitor pre-mixed with BHIA or TSA, with erythromycin (FIG. 3)): increase in the size of the clear zone
decrease in internal m^6 A [18]: > 30%
SAM synthetase inhibition (SAM synthetase): inhibitor of SAM synthetase
growth inhibiting effects (rat leukemia (BNML)): synergistic growth inhibiting effects
increase in the size of the clear zone [19]: increase in the size of the clear zone

CC(O)C1=C[C@@H](n2cnc3c(N)ncnc32)[C@H](O)[C@@H]1O (stereo partly shown) [6'-C-methylneplanocin A]
resistance to adenosine deaminase (adenosine deaminase): virtually resistant to adenosine deaminase
antiviral potency and selectivity vs neplanocin A (viruses): surpassing neplanocin A both in antiviral potency and selectivity
SAHH inhibition (murine L929 SAHH): good inhibitor of murine L929 SAHH

Nc1ncnc2c1ccn2[C@@H]1O[C@H](CSCCC(N)C(=O)O)[C@@H](O)[C@H]1O (stereo partly shown) [STH, S-Tubercidinylhomocysteine]
inhibition of tRNA methylases relative to SAH (tRNA methylases): retains the inhibitory potency of SAH on tRNA methylases
membrane permeation [20]: able to permeate cell membranes
susceptibility to nucleosidase [21]: not susceptible to the nucleosidase enzymes
inhibition of poly(A)-RNA methylation (poly(A)-RNA methylation): Inhibition of cytoplasmic methylation
inhibition [22]: particularly potent inhibitor

Nc1ncnc2c1ncn2[C@@H]1O[C@H](CSCC[C@H](N)C(=O)O)[C@@H](O)[C@H]1O [S-Adenosylhomocysteine, S-adenosylhomocysteine]
inhibition (methyl transfer from SAM): effective inhibitors
inhibition [23]: 97%
uptake and excretion [24]: not taken up and excreted unchanged in urine

CC(C)CSC[C@H]1O[C@@H](n2cnc3c(N)ncnc32)[C@H](O)[C@@H]1O [SIBA, 5'-deoxy-5'-S-isobutyl-adenosine]
potency as inhibitor [25]: most potent
inhibition [23]: 55%
inhibition of RNA methylation (RNA methylation; 1 mM): ~ 65%
inhibition of methylation in whole cells (RNA methylation): strongly inhibit methylation in whole cells
methylation of eukaryotic mRNA (RNA methylation; especially that of the 5' cap): inhibits the methylation of eukaryotic mRNA
